Source: the NIST ThermoML archive (doi:10.1021/je100089s)

What was measured:
[1] = Liquid, Vibrating tube method
[2] = xn = mol fraction of the nth substance listed; settings: Liquid, Vibrating tube method, x1 = 1

OCCO [1,2-ethanediol]
mass density [kg/m3], [1]
Settings	101 kPa	10000 kPa	25000 kPa	50000 kPa	75000 kPa	100000 kPa
278.15 K	1123.77	1127.65	1133.2	1141.71	1149.55	1157.24
288.15 K	–	1120.87	1126.51	1135.26	1143.65	1151.55
298.15 K	–	1113.97	1119.78	1128.78	1137.41	1145.51
308.15 K	–	1107.05	1112.97	1122.28	1131.41	1139.57
323.15 K	1092.12	–	–	1112.75	1122.55	1130.66

C[S+](C)[O-] [dimethyl sulfoxide] + OCCO
mass density [kg/m3], [2]
Settings	101 kPa	10000 kPa	25000 kPa	50000 kPa	75000 kPa	100000 kPa
298.15 K	1095.36	1101.16	1109.51	1122.86	–	–
308.15 K	1085.36	1091.6	1100.65	1115.13	1128.21	1136.76
323.15 K	1070.28	1076.9	1086.87	1102.44	1115.12	1123.25

C[S+](C)[O-] [dimethyl sulfoxide]
mass density [kg/m3], [1]
Settings	101 kPa	10000 kPa	25000 kPa	50000 kPa	75000 kPa	100000 kPa
298.15 K	1095.36	1101.16	1109.51	1122.86	–	–
308.15 K	1085.36	1091.6	1100.65	1115.13	1128.21	1136.76
323.15 K	1070.28	1076.9	1086.87	1102.44	1115.12	1123.25
